Test results: paper PMC9102953, “New Derivatives of 5-Substituted Uracils: Potential Agents with a Wide Spectrum of Biological Activity” (Molecules, 2022)
Where two headings read alike, the source gives them in different places.

Tests used:
HCoV-OC43 = assay: Antiviral cytopathicity assay, HCoV-OC43 in HEL 299 cells; format: cell-based
[1] = tested on: respiratory syncytial virus (RSV) strain A Long; assay: microbe, parasite or virus in culture; format: cell-based; conditions: for EC50: human respiratory syncytial virus, HEL 299, read-out: EC50 (μM) RSV A Long, HEL 299
[2] = tested on: yellow fever virus (YFV) strain 17 D; assay: microbe, parasite or virus in culture; format: cell-based; conditions: for EC50: Yellow fever virus, Huh-7, read-out: EC50 (μM) YFV 17D, Huh7
in vitro [3] = conditions: human
in vitro [4] = conditions: human; remark: listed apart in the source
in vitro [5] = conditions: dog
a variety of RNA viruses = format: cell-based
[6] = tested on: HEL299, Huh 7 and MDCK cells
[7] = Betacoronavirus 1, OC43, HEL 299 cells, reduction of virus-induced cytopathicity by 50%, read-out: EC50 (μM) HCoV-OC43, HEL 299
[8] = Betacoronavirus 1, OC43, HEL 299, read-out: EC50 (μM) HCoV-OC43, HEL 299

CCCCCCc1ccc(Nc2c[nH]c(=O)[nH]c2=O)cc1 [Compound 2d, 5-((4′-Hexylphenyl)amino)uracil]
EC50 (HCoV-OC43; [7]): > 100 µM
EC50 [1]: > 100 µM
EC50 [2]: > 100 µM
melting point: 332 to 333 °C
CC50 (in vitro [3]): > 100 µM
CC50 (in vitro [4]): > 100 µM
CC50 (in vitro [5]): > 100 µM

CCCCCCc1ccc(Nc2cn(C3C=CC(O)C3)c(=O)[nH]c2=O)cc1 (racemic) [(±)-3d, (±)-1-(4′-Hydroxycyclopent-2′-en-1′-yl)-5-((4′-hexylphenyl)amino)uracil]
EC50 (HCoV-OC43; [8]): > 100 µM
EC50 [1]: > 100 µM
EC50 [2]: > 100 µM
antiviral activity in the screening (in words) (a variety of RNA viruses): did not show any activity
cytotoxicity in the tested cell lines (in words) [6]: marked cytotoxicity
CC50 (in vitro [5]): 30 µM

O=c1[nH]c(=O)n(C2C=CC(O)C2)cc1Oc1ccc(Cl)cc1 (racemic) [(±)-10c, (±)-1-(4′-Hydroxycyclopent-2′-en-1′-yl)-5-(4″-chlorophenoxy)uracil]
EC50 (HCoV-OC43; [8]): > 100 µM
EC50 [1]: > 100 µM
EC50 [2]: > 100 µM
CC50 (in vitro [3]): > 100 µM
CC50 (in vitro [4]): > 100 µM
CC50 (in vitro [5]): > 100 µM

CCCCCCCc1ccc(Nc2cn(C3C=CC(O)C3)c(=O)[nH]c2=O)cc1 (racemic) [(±)-3f, (±)-4′-Hydroxycyclopent-2′-en-1′-yl)-5-((4′′-heptylphenyl)amino)uracil]
biological activity against HCoV OC43 (in words) (HCoV-OC43): moderate biological activity
EC50 (HCoV-OC43; [8]): 22.4 µM
EC50 [1]: > 100 µM
EC50 [2]: > 100 µM
CC50 (in vitro [3]): > 100 µM
CC50 (in vitro [4]): > 100 µM
CC50 (in vitro [5]): 70.4 µM

CCCCOc1ccc(Oc2cn(C3C=CC(O)C3)c(=O)[nH]c2=O)cc1 (racemic) [(±)-10b, (±)-1-(4′-Hydroxycyclopent-2′-en-1′-yl)-5-(4″-butoxyphenoxy)uracil]
EC50 (HCoV-OC43; [8]): > 100 µM
EC50 [1]: > 100 µM
EC50 [2]: > 100 µM
CC50 (in vitro [3]): > 100 µM
CC50 (in vitro [4]): > 100 µM
CC50 (in vitro [5]): > 100 µM

O=c1[nH]c(=O)n(C2C=CC(O)C2)cc1N1CCCCCC1 (racemic) [(±)-3a, (±)-1-(4′-Hydroxycyclopent-2′-en-1′-yl)-5-(azepan-1″-yl)uracil]
EC50 (HCoV-OC43; [8]): > 100 µM
EC50 [1]: > 100 µM
EC50 [2]: > 100 µM
CC50 (in vitro [3]): > 100 µM
CC50 (in vitro [4]): > 100 µM
CC50 (in vitro [5]): > 100 µM

CC(C)(C)c1ccc(Nc2cn(C3C=CC(O)C3)c(=O)[nH]c2=O)cc1 (racemic) [(±)-3e, (±)-1-(4′-Hydroxycyclopent-2′-en-1′-yl)-5-((4″-tert-butyl)phenylamino)uracil]
EC50 (HCoV-OC43; [8]): > 100 µM
EC50 [1]: > 100 µM
EC50 [2]: > 100 µM
antiviral activity in the screening (in words) (a variety of RNA viruses): did not show any activity
cytotoxicity in the tested cell lines (in words) [6]: marked cytotoxicity
CC50 (in vitro [3]): > 100 µM
CC50 (in vitro [4]): > 100 µM
CC50 (in vitro [5]): 63 µM

CC(C)c1ccc(Nc2cn(C3C=CC(O)C3)c(=O)[nH]c2=O)cc1 (racemic) [(±)-3g, (±)-1-(4′-Hydroxycyclopent-2′-en-1′-yl)-5-((4″-isopropylphenyl)amino)uracil]
EC50 (HCoV-OC43; [8]): > 100 µM
EC50 [1]: > 100 µM
EC50 [2]: > 100 µM
CC50 (in vitro [3]): > 100 µM
CC50 (in vitro [4]): > 100 µM
CC50 (in vitro [5]): > 100 µM

O=c1[nH]cc(N2CCCCCC2)c(=O)[nH]1 [Compound 2a, 5-(Azepan-1-yl)uracil]
EC50 (HCoV-OC43; [7]): > 100 µM
EC50 [1]: > 100 µM
EC50 [2]: > 100 µM
CC50 (in vitro [3]): > 100 µM
CC50 (in vitro [4]): > 100 µM
CC50 (in vitro [5]): > 100 µM

O=c1[nH]c(=O)n(C2C=CC(O)C2)cc1N1CCN(c2ccccc2)CC1 (racemic) [(±)-3b, (±)-1-(4′-Hydroxycyclopent-2′-en-1′-yl)-5-(4″-phenylpiperazin-1″-yl)uracil]
EC50 (HCoV-OC43; [8]): > 100 µM
EC50 [1]: > 100 µM
EC50 [2]: > 100 µM
CC50 (in vitro [3]): > 100 µM
CC50 (in vitro [4]): > 100 µM
CC50 (in vitro [5]): > 100 µM

Cc1cc(C)cc(Oc2c[nH]c(=O)[nH]c2=O)c1 [Compound 5a, 5-(3,5-Dimethylphenoxy)uracil]
EC50 (HCoV-OC43; [7]): > 100 µM
EC50 [1]: > 100 µM
EC50 [2]: > 100 µM
melting point: 293 to 295 °C
CC50 (in vitro [3]): > 100 µM
CC50 (in vitro [4]): > 100 µM
CC50 (in vitro [5]): > 100 µM

CC(C)(C)c1ccc(Oc2cn(C3C=CC(O)C3)c(=O)n(C3C=CC(O)C3)c2=O)cc1 (racemic) [(±)-11d, (±)-1-(4′-hydroxycyclopent-2′-en-1′-yl)-3-(4‴-hydroxycyclopent-2‴-en-1‴-yl)-5-(4″-(tert-butyl)phenoxy)uracil]
EC50 (HCoV-OC43; [8]): > 100 µM
EC50 [1]: > 100 µM
activity against yellow fever virus YFV (strain 17D) (in words) [2]: demonstrated activity
EC50 [2]: 47.9 µM
CC50 (in vitro [5]): 40.3 µM

CC(C)(C)c1ccc(Oc2c[nH]c(=O)[nH]c2=O)cc1 [Compound 5d, 5-(4-tert-Butylphenoxy)uracil]
EC50 (HCoV-OC43; [7]): > 100 µM
EC50 [1]: > 100 µM
EC50 [2]: > 100 µM
melting point: 273 to 275 °C
CC50 (in vitro [3]): > 100 µM
CC50 (in vitro [4]): > 100 µM
CC50 (in vitro [5]): > 100 µM

O=c1[nH]cc(N2CCN(c3ccccc3)CC2)c(=O)[nH]1 [Compound 2b, 5-(4-Phenylpiperazin-1-yl)uracil]
EC50 (HCoV-OC43; [7]): > 100 µM
EC50 [1]: > 100 µM
EC50 [2]: > 100 µM
melting point: 352 to 354.5 °C
CC50 (in vitro [3]): > 100 µM
CC50 (in vitro [4]): > 100 µM
CC50 (in vitro [5]): > 100 µM

O=c1[nH]cc(N2CCc3ccccc3C2)c(=O)[nH]1
melting point: 311 to 312 °C

O=c1c(N2CCCCCC2)cn(C2C=CC(O)C2)c(=O)n1C1C=CC(O)C1 (racemic) [(±)-4a, (±)-1-(4′-hydroxycyclopent-2′-en-1′-yl)-3-(4‴-hydroxycyclopent-2‴-en-1‴-yl)-5-(azepan-1″-yl)uracil]
EC50 (HCoV-OC43; [8]): > 100 µM
EC50 [1]: > 100 µM
EC50 [2]: > 100 µM
CC50 (in vitro [3]): > 100 µM
CC50 (in vitro [4]): > 100 µM
CC50 (in vitro [5]): > 100 µM

O=c1c(N2CCN(c3ccccc3)CC2)cn(C2C=CC(O)C2)c(=O)n1C1C=CC(O)C1 (racemic) [(±)-4b, (±)-1-(4′-hydroxycyclopent-2′-en-1′-yl)-3-(4‴-hydroxycyclopent-2‴-en-1‴-yl)-5-(4″-phenylpiperazin-1″-yl)uracil]
EC50 (HCoV-OC43; [8]): > 100 µM
EC50 [1]: > 100 µM
EC50 [2]: > 100 µM
CC50 (in vitro [3]): > 100 µM
CC50 (in vitro [4]): > 100 µM
CC50 (in vitro [5]): > 100 µM

CCCCOc1ccc(Oc2c[nH]c(=O)[nH]c2=O)cc1 [Compound 5b, 5-(4-Butoxyphenoxy)uracil]
EC50 (HCoV-OC43; [7]): > 100 µM
EC50 [1]: > 100 µM
EC50 [2]: > 100 µM
melting point: 271 to 274 °C
CC50 (in vitro [3]): > 100 µM
CC50 (in vitro [4]): > 100 µM
CC50 (in vitro [5]): > 100 µM

CCCCCCc1ccc(Nc2cn(C3C=CC(O)C3)c(=O)n(C3C=CC(O)C3)c2=O)cc1 (racemic) [(±)-4d, (±)-1-(4′-hydroxycyclopent-2′-en-1′-yl)-3-(4‴-hydroxycyclopent-2‴-en-1‴-yl)-5-(-((4″-hexylphenyl)amino)uracil]
biological activity against HCoV OC43 (in words) (HCoV-OC43): moderate biological activity
EC50 (HCoV-OC43; [8]): 28.7 µM
EC50 [1]: > 100 µM
EC50 [2]: > 100 µM
CC50 (in vitro [3]): > 100 µM
CC50 (in vitro [4]): > 100 µM
CC50 (in vitro [5]): 51.2 µM

Cc1cc(C)cc(Oc2cn(C3C=CC(O)C3)c(=O)n(C3C=CC(O)C3)c2=O)c1 (racemic) [(±)-11a, (±)-1-(4′-hydroxycyclopent-2′-en-1′-yl)-3-(4‴-hydroxycyclopent-2‴-en-1‴-yl)-5-(3″,5″-dimethylphenoxy)uracil]
biological activity against HCoV OC43 (in words) (HCoV-OC43): moderate biological activity
EC50 (HCoV-OC43; [8]): 29.8 µM
inhibition of respiratory syncytial virus RSV (strain A Long) (in words) [1]: inhibited
EC50 [1]: 28.7 µM
EC50 [2]: > 100 µM
CC50 (in vitro [5]): 39.3 µM

CCCCCCCOc1ccc(Nc2cn(C3C=CC(O)C3)c(=O)[nH]c2=O)cc1 (racemic) [(±)-3i, (±)-1-(4′-Hydroxycyclopent-2′-en-1′-yl)-5-((4″-(heptyloxy)phenyl)amino)uracil]
biological activity against HCoV OC43 (in words) (HCoV-OC43): moderate biological activity
EC50 (HCoV-OC43; [8]): 36.8 µM
EC50 [1]: > 100 µM
EC50 [2]: > 100 µM
CC50 (in vitro [5]): 34 µM

O=c1[nH]cc(Oc2ccc(Cl)cc2)c(=O)[nH]1 [Compound 5c, 5-(4-Chlorophenoxy)uracil]
EC50 (HCoV-OC43; [7]): > 100 µM
EC50 [1]: > 100 µM
EC50 [2]: > 100 µM
melting point: 331 to 333 °C
CC50 (in vitro [3]): > 100 µM
CC50 (in vitro [4]): > 100 µM
CC50 (in vitro [5]): > 100 µM

CCCCCCCc1ccc(Nc2cn(C3C=CC(O)C3)c(=O)n(C3C=CC(O)C3)c2=O)cc1 (racemic) [(±)-4f, (±)-1-(4′-hydroxycyclopent-2′-en-1′-yl)-3-(4‴-hydroxycyclopent-2‴-en-1‴-yl)-5-(-((4″-heptylphenyl)amino)uracil]
EC50 (HCoV-OC43; [8]): > 100 µM
EC50 [1]: > 100 µM
EC50 [2]: > 100 µM
CC50 (in vitro [3]): > 100 µM
CC50 (in vitro [4]): > 100 µM
CC50 (in vitro [5]): > 100 µM

CCC(CC)COC(=O)[C@H](C)N[P@](=O)(OC[C@H]1O[C@@](C#N)(c2ccc3c(N)ncnn23)[C@H](O)[C@@H]1O)Oc1ccccc1 [Remdesivir, reference compound]
EC50 (HCoV-OC43; [8]): 0.03 µM
EC50 [1]: 0.01 µM
CC50 (in vitro [3]): > 10 µM
CC50 (in vitro [4]): > 10 µM

CC(C)(C)c1ccc(Oc2cn(C3C=CC(O)C3)c(=O)[nH]c2=O)cc1 (racemic) [(±)-10d, (±)-1-(4′-Hydroxycyclopent-2′-en-1′-yl)-5-(4″-(tert-butyl)phenoxy)uracil]
EC50 (HCoV-OC43; [8]): > 100 µM
EC50 [1]: > 100 µM
EC50 [2]: > 100 µM
CC50 (in vitro [3]): > 100 µM
CC50 (in vitro [4]): > 100 µM
CC50 (in vitro [5]): > 100 µM

CC(C)(C)c1ccc(Nc2c[nH]c(=O)[nH]c2=O)cc1 [Compound 2e, 5-((4′-tert-Butylphenyl)amino)uracil]
EC50 (HCoV-OC43; [7]): > 100 µM
EC50 [1]: > 100 µM
EC50 [2]: > 100 µM
melting point: 354.5 to 356.5 °C
CC50 (in vitro [3]): > 100 µM
CC50 (in vitro [4]): > 100 µM
CC50 (in vitro [5]): > 100 µM
